Data on five molecules can be found in paper PMC6864091, “A LONELY GUY protein of Bordetella pertussis with unique features is related to oxidative stress” (Scientific Reports, 2019).

The target in data set [1] is T1, BP1253 (BpLOG) (Bordetella pertussis, UniProt Q7VYQ7).
T1 construct: recombinant BP1253 with C-terminal 6x His tag (BP1253-His)
As to the kind of experiment: SPR (data not shown). In kind it is binding.

For data set [2], the target named is T1, BP1253 (BpLOG). As to the kind of experiment: SPR (Biacore T200, steady state, amine-coupled BP1253-His); cleavage also shown by TLC. Type of data set: binding.
Data set [3] concerns the molecule itself. As to the kind of experiment: SEC; analytical SEC, BEH200 column 4.6 x 300 mm, 10 mM NaH2PO4, 400 mM (NH4)2SO4 pH 6.0; samples of 0.62 mg/ml and 3 mg/ml; mass from a calibration curve of standard proteins.

On to `Cc1cn([C@H]2C[C@H](O)[C@@H](COP(=O)(O)O)O2)c(=O)[nH]c1=O` [TMP], for which, in data set [1], the Kd worked out at 2400 µM.

`Nc1ncnc2c1ncn2[C@@H]1O[C@H](COP(=O)(O)O)[C@@H](O)[C@H]1O` [AMP]: the Kd in data set [2] was found to be 5.7 µM.

`Nc1nc2c(ncn2[C@@H]2O[C@H](COP(=O)(O)O)[C@@H](O)[C@H]2O)c(=O)[nH]1` [GMP]: the Kd in data set [2] was determined as 38.6 µM.

For the molecule `O=c1ccn([C@@H]2O[C@H](COP(=O)(O)O)[C@@H](O)[C@H]2O)c(=O)[nH]1` [UMP], the Kd in data set [1] was found to be 6100 µM.

B1: BP1253 (enzyme, Bordetella pertussis, UniProt Q7VYQ7 1-209, looked up)
chain: MSEIKTAAEKLADIGPAVSMFGSARISRESPYYETCAAISAALAGAGFAIIAGGGPGIMEAANKGAFEAGGTSVGLNISLPHEAHNNEYQTISLSFEYFYSRKATFFMHSMAYVAMPGGFGTLDELFEALTLIQTGKVPPAPIVLVGSEFWHGLVDWLGEQLLANGMIAAHDLNLFIIEDDPAKVVRKVVEFHDKQGRTDSQYAPSLPA
notes: also called BpLOG; BP1253-His
Consider B1, for which, in data set [3], the “stoichiometry N” value was 2.
